Results: patent EP0695187B1, “INHIBITION, CONTROL AND REGRESSION OF ANGIOGENESIS WITH HYALURONIC ACID OR HYALURONIC ACID AND NSAID” (JAGOTEC AG, priority 1993, dated 1994)
Values joined by “and” are separate entries in the source; they are usually repeats but may differ in a detail not shown here. Equal entries are not always repeated.

Legend:
Format in all cases: in vivo, mice
[1] = tested on: vasculature within the murine chronic granulomatous air pouch; experiment: murine chronic granulomatous air pouch, carmine vascular cast; dosing daily from induction for 6 days; settings: for effect on the tissue vascularity: daily
Protocol: The Applicants chose a simple model of murine angiogenesis induced with a chronic granulomatous reaction to Freund's complete adjuvant in croton oil. The Applicants assessed this process using a modification of this method by the formation of an intravascular cast incorporating carmine red. Chronic granulomatous air pouches were induced by the sc injection of 3 ml air into anaesthetized mice (25-30 g, Tuck Original) and 0.5 ml Freund's complete adjuvant with 0.1% croton oil 24 hours later. The mice were dosed for 6 days and the vascular content assessed by the formation of a vascular cast. This was formed by the intravenous injection of 1 ml 25% carmine red in 10% gelatin at 40°C into warmed mice. This overcame any pharmacological or temperature-related alterations in peripheral vasomotor tone which may have invalidated the results. The carcasses were chilled and the granulomatous air pouch linings dissected. These were dried at 56°C, weighed, and papain digested. The dye was then be dissolved by the addition of 1 ml 0.05 M NaOH, and the samples were then centrifuged at 2500 g for 20 minutes. After these were filtered, the absorbances were read at 490 nm using a multiwell plate reader (Biotek). The results were then expressed as either µg dye/mg dry weight of tissue. […] On the seventh day after induction the vascularity of the tissue was assessed. […] The formation of a subcutaneous air pouch in the dorsum of mice allows the formation of a lining which responds to produce a chronic inflammatory lesion in response to various antigens, irritants and foreign bodies. It can also be used for the introduction of drugs and various other treatments into the site of inflammation and the collection of inflammatory exudate. […] For this experiment female mice (TO. 25-30g, 10 per group) were lightly anesthetized with hypnorm/hypnoval. Air pouches were formed by the subcutaneous injection of 3 ml of filter-sterilized air, into the dorsum of each mouse. After 24 hours, chronic inflammation was induced in the air pouch lining by the injection of 0.5 ml Freund's complete adjuvant (FCA) supplemented with 0.1% croton oil. Animals were dosed daily from the time o: injection of FCA/croton oil, for 6 Days. At which point the analysis was performed. […] Each mouse was then placed into a water jacketed incubation chamber at 37°C and injected i.v. with 1 ml of 15% carmine dye in 10% gelatin (in Hanks balanced salt solution) with syringe and solution prewarmed to 40°C. Cadavers were then chilled at 4°C for 4 hours. The granulomatous tissue was dissected free and dried in an oven at 56°C for 48 hours. The dried granuloma was weighed and then digested in 9 ml of papain solution (12-Units/ml in 0.05 M phosphate buffer, pH 7.0, supplemented with 0.33g/l N-acetyl cysteine), at 56°C for 48 hours. The digests were then made up to 10 ml with 5.0M NaOH and vortexed, to solubilise the dye and centrifuged. The digests were filtered through 0.2µm cellulose nitrate membranes and […] samples aliquoted into 96 well plates and analyzed for dye content by spectrophotometric analysis at […] using a microplate reader. Vascular volume was calculated as carmine content per mg dry mass of tissue.

[2] = tested on: vasculature within the murine chronic granulomatous air pouch; experiment: further protocol: air pouch granuloma grown 7 days untreated, then topical daily treatment (regression); settings: for VI: mean vascularity index; for Carmine / Dry wt. gran.: mean
Protocol: In another protocol, the use of the air pouch on the mice was once again employed. Only this time, after formation of the pouches and injection of .5 ml Freund's complete adjuvant (FCA) supplemented with 0.1% croton oil, the granuloma in the mice were permitted to grow for 7 days (they were left unhealed for 1 week). […] The granulomatous tissue was dissected and treated as previously described. The weight of the granuloma (including the carmine red dye) and weight of the carmine red dye (which displaced the blood) were determined for each mouse sacrificed at each stage (after 7, 14 and 21 days). The vascularity index (VI) was calculated and the mean vascularity index was calculated for each group as follows: Vascularity Index (VI) =(weight of carmine red dye in GRANULOMA)/(Weight of GRANULOMA (including carmine red dye)) [formula]

[3] = tested on: vasculature within the murine chronic granulomatous air pouch; experiment: murine chronic granulomatous air pouch, carmine vascular cast; dosing daily from induction for 6 days; settings: Topical, n = 8 (Table Three summary)
[4] = i-pouch, n = 10 (Table Three summary)
[5] = intra-pouch injection, daily 6 days, group mean, N = 10
[6] = 2 week (one week of topical application)
[7] = 3 week (two weeks of topical application)

O=C(O)Cc1ccccc1Nc1c(Cl)cccc1Cl [diclofenac (diclo), Diclofenac]
Carmine dye (ug) Mean [1, 4]: 92.6 µg
ug.dye/mg.gramuloma Mean [1, 4]: 0.7363 ug.dye/mg.gramuloma
effect on the tissue vascularity ([1]; intra-lesional injection, assessed on seventh day (Figure 1(b))): no significant effect
Absorbness / Absorbous ([1]; intra-pouch injection, daily 6 days, absorbance at 490 nm of digest, individual animals, listed as Saline + diclo): 0.773 and 0.242 and 0.730 and 0.400 and 0.409 and 0.262 and 0.402 and 0.468
ug dye mg ([1]; intra-pouch injection, daily 6 days, carmine per mg dry tissue, individual animals, listed as Saline + diclo): 1.194 ug dye mg and 0.320 ug dye mg and 1.577 ug dye mg and 1.050 ug dye mg and 0.674 ug dye mg and 0.442 ug dye mg and 0.526 ug dye mg and 0.471 ug dye mg and 0.586 ug dye mg and 0.520 ug dye mg
Dry wt ([1]; intra-pouch injection, daily 6 days, dried granuloma, individual animals, listed as Saline + diclo): 158 mg and 99 mg (2×) and 124 mg and 162 mg and 170 mg and 122 mg
ug carmine [1, 5]: 92.75 µg
ug dye mg [1, 5]: 0.7363 ug dye mg
ug carmine ([1]; intra-pouch injection, daily 6 days, individual animals, listed as Saline + diclo): 166 µg and 50.5 µg and 156 µg and 104 µg and 86.7 µg and 54.8 µg and 85.2 µg and 63.7 µg and 99.5 µg and 61.3 µg
effect on the tissue vascularity ([1]; topical, assessed on seventh day (Figure 1(a))): no significant effect
VI ([2]; 2 week (one week of topical application), listed as Diclo Alone): 1.3 µg/mg
VI ([2]; 2 week (one week of topical application), listed as aq. cream/Diclo): 1.300 µg/mg
Carmine [2, 6]: 108.63 µg
Dry wt. gran. [2, 6]: 84.41 mg
Carmine [2, 7]: 150.07 µg
Dry wt. gran. [2, 7]: 112.19 mg
Carmine dye (ug) Mean [3]: 187.3 µg
Granuloma dry wt.(mg) Mean [3]: 166.3 mg
ug.dye/mg.gramuloma Mean [3]: 1.216 ug.dye/mg.gramuloma
